Source: US8293734B2, “Nitroimidazooxazine and nitroimidazooxazole analogues and their uses” (priority 2009, dated 2012)
In brackets after ≈: the same amount, converted by molar mass.

Legend:
[1] = tested on: L. donovani amastigotes (MHOM-ET-67/L82) in mouse macrophages; test: Leishmania donovani infected macrophage assay; format: cell-based; details: 96 h incubation, read-out: IC50 L. donovani macro
Procedure: (§1) (c) Antiprotozoal screening. Compounds were evaluated for their activities against both Trypanosoma cruzi amastigotes and Leishmania donovani amastigotes (free or encapsulated in macrophages), according to the following protocols:
(iii) Leishmania donovani infected macrophage assay. Freshly harvested mouse macrophages in medium (RPMI 1640 plus 10% heat inactivated fetal calf serum) were incubated at 37° C. (5% CO2) for 24 h and then infected (1:3 macrophages to amastigotes) with an axenic L. donovani amastigote culture (MHOM-ET-67/L82) in medium (SM, pH 5.4 plus 10% heat inactivated fetal calf serum). The infected macrophages were seeded at a density of 1.2×10^6/mL (by diluting in RPMI+10% FCS) in 16-well slides (Lab-tek™) and incubated at 37° C. (5% CO2) for 24 h. The medium was removed and replaced by fresh medium (RPMI 1640+10% FCS), and this was repeated following mixing. The infected macrophages were then incubated at 37° C. (5% CO2) for 96 h in either medium alone or in the presence of serial (3-fold) dilutions of test compounds (initially prepared as 10 mg/mL stock solutions in DMSO and diluted into medium). Miltefosin was employed as a standard in each assay. […], the slides were fixed (5 min in 100% MeOH) and stained (10% Giemsa, 10 min). The ratio of infected to uninfected macrophages was determined by microscopic examination, and the IC50 values were then calculated by linear regression analysis.

[2] = tested on: VERO cells (CCL-81); test: Mammalian cell cytotoxicity assay (tetrazolium dye); format: cell-based; details: Chlorocebus sabaeus, 72 h exposure, read-out: IC50 VERO
Procedure: (b) Mammalian cell cytotoxicity assay. This was assessed against VERO cells (CCL-81, American Type Culture Collection) in a 72 h exposure, using a tetrazolium dye assay (Falzari et al., 2005).

[3] = tested on: Axenically grown L. donovani amastigotes (MHOM-ET-67/L82); test: Axenic Leishmania donovani assay; format: cell-based; details: 70 h incubation, read-out: IC50 L. donovani axen
Procedure: as §1
(ii) Axenic Leishmania donovani assay. Axenically grown L. donovani amastigotes (MHOM-ET-67/L82) from a healthy culture in log phase were seeded at a density of 1×10^6/mL medium (SM, pH 5.4 plus 10% heat inactivated fetal calf serum) in 96-well microtitre plates (Costar™) and incubated at 37° C. (5% CO2) for 70 h in either medium alone or in the presence of serial (3-fold) dilutions of test compounds (initially prepared as 10 mg/mL stock solutions in DMSO and diluted into medium). Miltefosin was employed as a standard in each assay. After incubation, Resazurin fluorescent dye was added to each well, and incubation was continued for an additional 2 h. The IC50 values were determined from measurements of the fluorescence data.

[4] = Stability to human liver microsomes; format: in vitro ADME; details: 1 μM compound, 60 min, 37° C., 0.5 mg/mL protein
Procedure: (§2) (a) Stability of the compounds to human and mouse microsomes. Test compounds (1 μM) were incubated at 37° C. with pooled human or CD-1 mouse liver microsome preparations (0.5 mg/mL final protein concentration) and an NADPH regenerating system (MgCl2, 3.3 mM; G6P, 3.3 mM; G6PD, 0.4 U/mL; NADP+, 1.3 mM) in phosphate buffer (75 mM, pH 7.4), with a final volume of 200 μL. The compounds were dissolved in DMSO such that the final DMSO concentration was 0.5%. Reactions were stopped at 0 and 60 min by the addition of MeCN (100 μL) containing 0.2 μM metoprolol as an internal standard. Samples were diluted 10× and centrifuged prior to analysis by LC-MS/MS using electrospray ionization and SRM monitoring using a gradient LC method. LC peak areas were integrated and expressed as analyte/IS peak area ratios (PAR), and a mean value for each time point was calculated from the duplicates. The percent remaining value was calculated as: % remaining=100×(Mean PART60/Mean PART0).

[5] = tested on: Trypanosoma cruzi amastigotes (Tulahuen C2C4 strain); test: Trypanosoma cruzi assay in infected L-6 cells; format: cell-based; details: L6, 96 h incubation, read-out: IC50 T. cruzi
Procedure: as §1
(i) Trypanosoma cruzi assay. L-6 cells (2×10^3) in medium (100 μL of RPMI 1640 supplemented with 2 mM L-glutamine plus 10% heat inactivated fetal calf serum) were seeded in 96-well microtitre plates (Costar™) and incubated at 37° C. (5% CO2) for 1d. A suspension (50 μL) of Trypanosoma cruzi trypomastigotes (5×10^3 of Tulahuen C2C4 strain, containing the β-galactosidase gene) was added, and the cells were incubated at 37° C. (5% CO2) for a further 48 h to establish the infection. The medium was removed and replaced by fresh medium and the infected cells were then incubated at 37° C. (5% CO2) for 96 h in either medium alone or in the presence of serial (3-fold) dilutions of test compounds (initially prepared as 10 mg/mL stock solutions in DMSO and diluted into medium). Benznidazole was employed as a standard in each assay. Following incubation, chlorophenol red glycoside (100 mM) in 0.1% Nonidet P40/PBS (50 μL) was added, and (after 6 h) the absorbance at 540 nm was measured and used to calculate the IC50 values.

[6] = Stability to mouse liver microsomes; format: in vitro ADME, CD-1 mouse; details: 1 μM compound, 60 min, 37° C., 0.5 mg/mL protein
Procedure: as §2

In the case of `O=[N+]([O-])c1cn2c(n1)OCC(COCc1ccc(OC(F)(F)F)cc1)C2` (stereo not shown) [Compound 72, 2-nitro-6-({[4-(trifluoromethoxy)benzyl]oxy}methyl)-6,7-dihydro-5H-imidazo[2,1-b][1,3]oxazine], the IC50 [1] is reported as 0.55 mg/L (≈ 1.47 µM), the melting point is reported as 92 to 93 °C and the IC50 [2] is reported as 46 µM. For the same compound, the IC50 [3] was 0.089 mg/L (≈ 0.238 µM), the “Microsomes (% remaining) Human” value [4] was 71% and the IC50 [5] was 0.62 mg/L (≈ 1.66 µM). For the same compound, the “Microsomes (% remaining) Mouse” value [6] was 41%.
